According to patent publication US4073917A, “Local anesthetics tertiary aminoalkoxyphenyl ethers” (priority 1974, dated 1978):

Columns and labels:
[1] = acute toxicity in mice (LD 50); conditions: mouse, in vivo
Protocol: C. The acute toxicity for the base forms of a number of the new compounds were tested in mice.

[2] = system: back of the guinea-pig (intact skin); experiment: surface anesthesia by epicutaneous application to intact skin, pricking test as in the intracutaneous wheal test; type: in vivo, guinea-pig (Dunkin-Hartley, males); conditions: for Local anesthetic efficiency (percentage block during the 25 min testing period): ± s.e.m.
Description: A. Guinea-pigs (Dunkin-Hartley, males, 4-6 weeks of age 350±50 g) were shaved and depilated. A gauze folded twice (23 mm diameter) was put into the test solution and thereafter in a plastic cup (outer diameter 26 mm, inner diameter 24 mm, inner height 4 mm). The cup with the gauze saturated with test solution was attached to the back of the animal as an occlusive dressing fastened with plaster (25 mm width) wound around the body). […] After the end of the contact time the site of contact was washed and marked with a fatty chalk. With a sharp instrument (e.g. cannula or a pair of tweezers) the place was pricked six times and registering was made as in the intracutaneous wheal test (Bulbring-Wajda: J. Pharmacol., 1945, 85, p 78) on the back of the guinea-pig, i.e. by registering the presence or absence of a characteristic ripple of the skin of the back of the animal. Every pricking which gives no skin contraction was counted. The test was repeated at regular intervals of 5 min, during an interval of 30 min from the end of the application period. The test gives an indication of onset time, depth and duration of block. The percentage block during the 25 min testing period was used as an index for efficiency. The test solution consisted of the test compound (base) dissolved to 10% (w/v, g/ml) in a mixture of isopropanol (65%: v/v), glycerol (25%: v/v) and water (10%: v/v).
The compound according to Example 1 (RAP 411) was tested also with varying concentrations and in the form of a hydrochloride salt in aqueous solution.

sciatic nerve = experiment: infiltration anesthesia, sciatic nerve block in the intact guinea-pig (Shackell); type: in vivo
Protocol: B. The compounds according to the invention were also tested as to onset and duration of local anesthetic effect at parenteral administration (infiltration anesthesia). […] Four animals were used at each test. The results are depicted in the following table:
The reference compound being used at this test is 2-(N-ethyl-n-propylamino)-2',6'-n-butyroxylidide (etidocaine).

mice = conditions: s.c.; taken from Adams et al; cited from earlier work
[3] = 10% (w/v) base in isopropanol 65%/glycerol 25%/water 10%, time of contact 30 min
[4] = 5% base in the alcoholic mixture
[5] = 10% hydrochloride in aqueous solution

With `CCN(CC)CCCOc1ccccc1OCC(C)C` [Example 5, 1-Isobutoxy-2-(3'-diethylaminopropoxy)-benzene] the LD50 ([1]; iv) was 14 mg/kg and the “Local anesthetic efficiency (percentage block during the 25 min testing period)” value [2, 3] was 75.7 ± 9.4%.
With `CCCCOc1ccccc1OCCN(C(C)C)C(C)C` [Example 1, 1-n-Butoxy-2-(2'-diisopropylaminoethoxy)-benzene] the “Flexion reflex block, onset” value (sciatic nerve; conc. 0.5%, pH 6.0) was 1 min, the “Motor paralysis, onset” value (sciatic nerve; conc. 0.5%, pH 6.0) was 1 min and the LD50 ([1]; iv) was 15 mg/kg. For the same molecule, the LD50 ([1]; sc) was 250 mg/kg, the anesthesia [2, 4] was “complete anesthesia” and the “duration of complete anesthesia” value [2, 4] was “at least 30 min”. For the same molecule, the “Local anesthetic efficiency (percentage block during the 25 min testing period)” value [2, 3] was 99.3 ± 0.7%.
With `CCCCOc1ccccc1OCCN(C(C)C)C(C)C.Cl` [RAP 411 hydrochloride, 1-n-butoxy-2-(2'-diisopropylaminoethoxy)-benzene hydrochloride] the anesthesia [2, 5] was “complete anesthesia” and the “duration of complete anesthesia” value [2, 5] was “at least 30 min”.
With `CCCOc1ccccc1OCCN(C(C)C)C(C)C` [Example 2, 1-n-Propoxy-2-(2'-diisopropylaminoethoxy)-benzene] the “Local anesthetic efficiency (percentage block during the 25 min testing period)” value [2, 3] was 98.6 ± 0.8%.
In the case of `CCN(CC)CC(=O)Nc1c(C)cccc1C` [Lidocaine, diethylaminoacet-2,6-xylidide], the “Flexion reflex block, duration” value (sciatic nerve; conc. 2.0%, pH 6.9) is reported as 57 ± 7 min, the “Flexion reflex block, onset” value (sciatic nerve; conc. 2.0%, pH 6.9) is reported as 1 to 2 min and the “Motor paralysis, duration” value (sciatic nerve; conc. 2.0%, pH 6.9) is reported as 78 ± 5 min. For the same molecule, the “Motor paralysis, onset” value (sciatic nerve; conc. 2.0%, pH 6.9) was 1 min.
For `CCCN(CC)C(CC)C(=O)Nc1c(C)cccc1C` (centres unmarked) [Etidocaine, 2-(N-ethyl-n-propylamino)-2',6'-n-butyroxylidide], the “Flexion reflex block, duration” value (sciatic nerve; conc. 0.5%, pH 6.0) was 84 ± 17 min, the “Flexion reflex block, onset” value (sciatic nerve; conc. 0.5%, pH 6.0) was 1 to 2 min and the “Motor paralysis, duration” value (sciatic nerve; conc. 0.5%, pH 6.0) was 131 ± 13 min. The “Motor paralysis, onset” value (sciatic nerve; conc. 0.5%, pH 6.0) was 1 min and the “LD 50 (base)” value (mice) was 99 mg/kg.
In the case of `CCCCOc1ccccc1OCCN1CCCCC1` [Example 6, 1-n-Butoxy-2-(2'-piperidinoethoxy)-benzene], the LD50 ([1]; iv) is reported as 9 mg/kg and the “Local anesthetic efficiency (percentage block during the 25 min testing period)” value ([2]; 10% (w/v) base in alcoholic mixture, time of contact 15 min) is reported as 79.2 ± 12.6%.
For `CCN(CC)CCOc1ccccc1OCC(C)C` [Example 4, 1-Isobutoxy-2-(2'-diethylaminoethoxy)-benzene], the LD50 ([1]; iv) was 18 mg/kg and the “Local anesthetic efficiency (percentage block during the 25 min testing period)” value [2, 3] was 97.2 ± 2.8%.
For `CCN(CC)CCOc1ccccc1OC` [RAP 419, o-methoxy-(diethylaminoethoxy)-benzene, reference compound], the “Local anesthetic efficiency (percentage block during the 25 min testing period)” value [2, 3] was 0%.
For `CC(C)COc1ccccc1OCCN(C(C)C)C(C)C` [Example 3, 1-Isobutoxy-2-(2'-diisopropylaminoethoxy)-benzene], the LD50 ([1]; iv) was 14 mg/kg, the LD50 ([1]; sc) was 300 mg/kg and the “Local anesthetic efficiency (percentage block during the 25 min testing period)” value [2, 3] was 97.2 ± 2.8%.
